# Experimental data taken from PubChem BioAssay (NCI).
#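 Dose response: 5 concentrations. Exposure: 48 h. Format: 96-well plates. Endpoint: linear interpolation; highest concentration if not reached. GI50: concentration for 50% inhibition of growth. TGI: total growth inhibition.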
# Legend:
# Assay in all cases: NCI tumour cell line growth inhibition, 48 h
# [1] = system: SN12C renal
# [2] = system: HOP-62 NSCLC
# [3] = system: SNB-75 CNS
# [4] = system: 786-0 renal
# [5] = system: NCI-H226 lung
# [6] = system: UO-31 renal
# [7] = system: MDA-MB-435
# [8] = system: DU-145 prostate
# [9] = system: RPMI-8226 leukemia
# [10] = system: SK-MEL-2 melanoma
SMILES,GI50 [1] [µM],TGI [1] [µM],GI50 [2] [µM],TGI [2] [µM],GI50 [3] [µM],TGI [3] [µM],GI50 [4] [µM],TGI [4] [µM],GI50 [5] [µM],TGI [5] [µM],GI50 [6] [µM],TGI [6] [µM],GI50 [7] [µM],TGI [7] [µM],GI50 [8] [µM],TGI [8] [µM],GI50 [9] [µM],TGI [9] [µM],GI50 [10] [µM],TGI [10] [µM]
COc1cc2c(N3CCN(C(=O)Nc4ccc(OC(C)C)cc4)CC3)ncnc2cc1OCCCN1CCCCC1,14.9,88,14.4,34.2,3.29,26.4,17.6,37.8,15.2,45.3,15.2,40.7,13.8,29.9,22,> 85.3,11.7,> 54.1,15.6,32.3
C[C@]12CC[C@H]3[C@@H](CCC4=CC(=O)CC[C@@]43C)[C@@H]1CC[C@@H]2c1csc(N)n1,3.57,24.5,6.56,23.7,8.62,24.2,10.7,33.4,4.61,23.7,2.46,11.2,2.63,10.6,6.72,24.5,1.21,26.2,14.5,32.7
CN(C)CCCC1(c2ccc(F)cc2)OCc2cc(-c3cccc4[nH]ccc34)ccc21 (centres undefined),1.55,2.96,1.5,2.89,1.27,3.37,1.63,3.24,1.76,3.52,1.35,2.63,1.76,3.31,1.77,3.23,1.77,4.12,1.79,3.59
COc1ccc2sc3c(NCCCN)nc4ccccc4c3c(=O)c2c1,1.63,3.11,1.7,3.46,1.38,2.72,1.63,3.11,1.84,3.84,1.43,2.82,1.74,3.21,1.81,3.31,1.85,3.89,2,3.98
CCn1c2c(c3ccccc3c1=O)C(=O)c1ccccc1-2,,> 100,,> 100,,> 100,,> 100,,> 100,,> 100,,> 100,,> 100,,> 100,,> 100
O=C1CC(c2ccccc2)Oc2ccccc21 (centres undefined),,,,> 100,,> 100,,> 100,,> 100,,> 100,,> 100,,> 100,,37.9,,86.7
O=C1c2cccc(Oc3ccccc3)c2C(=O)c2cccc(Oc3ccccc3)c21,> 100,> 100,5.05,> 100,9.13,42.7,27.5,> 100,> 100,> 100,> 100,> 100,> 100,> 100,> 100,> 100,> 100,> 100,96.7,> 100
O=C1C=C[C@H](O)[C@@]2(CO)O[C@@H]12,8.53,22.4,23.7,> 55.2,11.3,23.4,16.4,30,17.3,50.7,10.4,24,9.92,> 51.5,14.3,27.4,3.38,12,14.6,33.5
COc1ccc2c(N)ncc(C#Cc3cc(C(=O)Nc4ccc(CN5CCN(C)CC5)c(C(F)(F)F)c4)cnc3C)c2c1,0.594,1.52,4.36,33.2,0.729,4.38,0.673,1.25,1.27,9.5,0.632,2.28,0.647,3.1,0.419,0.874,0.775,2.25,0.771,2.67
Cc1ccc2c(-c3ccnc(Nc4ccc5c(c4)OCCO5)n3)c(-c3ccc(C(F)(F)F)cc3)nn2n1,5.26,> 25,24.8,> 25,> 8.65,> 25,> 21.3,> 25,11.5,> 25,2.41,> 25,17.2,> 25,> 20.6,> 25,2.13,13.5,8.42,> 25
N#CC1(c2ccc(NC(=O)c3cccnc3NCc3ccncc3)cc2)CCCC1,18,> 100,22.4,84.9,8.08,56.7,14.5,49.6,12.3,75.1,12.6,60.7,13.4,37.4,18.8,> 100,6.73,31.4,11.9,32
Cc1cccc(NC(=O)c2sc3nc4c(cc3c2N)C(=O)CCC4)c1,0.74,> 63.8,0.425,> 43.7,0.272,> 39.4,0.527,> 41,5.8,> 100,13.9,51.2,0.0302,0.126,0.302,> 30,0.594,> 100,0.266,> 54.2
O=c1c2ccccc2sc2c(CO)ccc(NCCN3CCCCC3)c12,,15.6,,14.6,,19.5,,12.2,,10.6,,4.98,,7.92,,7.18,,4.6,,14.5
